Assay results: PubChem BioAssay AID588645 (Sanford-Burnham Center for Chemical Genomics, 2011)
The source made the active and inactive calls. The rule behind the calls is not given here.

The molecules below were run against Intestinal-type alkaline phosphatase (Homo sapiens) (UniProt P09923) (assay: inhibition of human intestinal alkaline phosphatase – biochemical, set 2, mouse IAP inhibitor project, SAR follow-up (AID 588645)). Conditions: human intestinal alkaline phosphatase enzymatic inhibition assay.
Sequence of Intestinal-type alkaline phosphatase (Homo sapiens) (P09923 whole entry, looked up): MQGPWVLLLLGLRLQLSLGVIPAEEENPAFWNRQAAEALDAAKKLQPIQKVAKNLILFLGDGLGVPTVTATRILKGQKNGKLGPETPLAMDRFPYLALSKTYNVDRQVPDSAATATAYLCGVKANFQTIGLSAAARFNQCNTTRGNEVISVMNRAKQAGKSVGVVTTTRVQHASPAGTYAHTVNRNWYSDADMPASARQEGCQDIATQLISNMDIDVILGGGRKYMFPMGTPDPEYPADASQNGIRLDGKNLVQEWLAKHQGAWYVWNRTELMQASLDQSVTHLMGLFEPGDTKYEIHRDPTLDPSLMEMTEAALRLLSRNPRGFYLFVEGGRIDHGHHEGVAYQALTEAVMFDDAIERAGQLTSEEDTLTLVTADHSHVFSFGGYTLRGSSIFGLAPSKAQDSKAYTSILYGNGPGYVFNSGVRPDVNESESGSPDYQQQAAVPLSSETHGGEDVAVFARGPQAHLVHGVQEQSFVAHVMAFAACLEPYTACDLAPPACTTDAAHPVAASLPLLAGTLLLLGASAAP

Row | SMILES | IC50
1 | COc1ccc(CNC(=O)CCCNS(=O)(=O)c2ccc3[nH]c(=O)oc3c2)cc1OC | > 100 µM (inactive)
2 | COc1ccc(CNC(=O)CCNS(=O)(=O)c2ccc3[nH]c(=O)oc3c2)cc1 | > 100 µM (inactive)
3 | COc1ccc(CNC(=O)CCNS(=O)(=O)c2ccc3[nH]c(=O)oc3c2)c(OC)c1 | > 100 µM (inactive)
4 | COc1ccc(CNC(=O)CNS(=O)(=O)c2ccc3[nH]c(=O)oc3c2)c(OC)c1 | > 100 µM (inactive)
5 | O=c1[nH]c2ccc(S(=O)(=O)NCCc3ccc4c(c3)OCO4)cc2o1 | > 100 µM (inactive)
6 | COc1ccc(CNC(=O)CCCNS(=O)(=O)c2ccc3[nH]c(=O)oc3c2)c(OC)c1 | > 100 µM (inactive)
7 | COc1ccc(CNC(=O)CCNS(=O)(=O)c2ccc3c(c2)CCC3)c(OC)c1 | > 100 µM (inactive)
8 | CN(C)c1ccc(CNC(=O)C2CCCN(S(=O)(=O)c3ccc4[nH]c(=O)oc4c3)C2)cc1 (configuration not stated) | > 100 µM (inactive)
9 | COc1ccccc1CNC(=O)CCCNS(=O)(=O)c1ccc2[nH]c(=O)oc2c1 | > 100 µM (inactive)
10 | COc1ccc(NC(=O)CCNS(=O)(=O)c2ccc3c(c2)CCC3)cc1OC | > 100 µM (inactive)
11 | CC(C)Oc1ccc(CNC(=O)C2CCCN(S(=O)(=O)c3ccc4[nH]c(=O)oc4c3)C2)cc1 (configuration not stated) | > 100 µM (inactive)
12 | O=c1[nH]c2ccc(S(=O)(=O)NCc3ccc4c(c3)OCO4)cc2o1 | > 100 µM (inactive)
13 | COc1ccc(CNC(=O)CCNS(=O)(=O)c2ccc3ccccc3c2)c(OC)c1 | > 100 µM (inactive)
14 | Cc1cc(NC(=O)CCNS(=O)(=O)c2ccc3[nH]c(=O)oc3c2)ccc1Br | > 100 µM (inactive)
15 | Cc1ccc(NC(=O)CCNS(=O)(=O)c2ccc3[nH]c(=O)oc3c2)cc1C | > 100 µM (inactive)
16 | O=C(NCc1ccccc1)C1CCCN(S(=O)(=O)c2ccc3[nH]c(=O)oc3c2)C1 (configuration not stated) | > 100 µM (inactive)
17 | Cc1ccc(C)c(NC(=O)CCNS(=O)(=O)c2ccc3[nH]c(=O)oc3c2)c1 | > 100 µM (inactive)
18 | Cc1ccc(C)c(NC(=O)CNS(=O)(=O)c2ccc3[nH]c(=O)oc3c2)c1 | > 100 µM (inactive)
19 | O=C(NCc1ccc2c(c1)OCO2)C1CCCN(S(=O)(=O)c2ccc3[nH]c(=O)oc3c2)C1 (configuration not stated) | > 100 µM (inactive)
20 | Cc1ccc(CNC(=O)CCNS(=O)(=O)c2ccc3[nH]c(=O)oc3c2)cc1 | > 100 µM (inactive)
21 | COc1cccc(CNC(=O)CCNS(=O)(=O)c2ccc3[nH]c(=O)oc3c2)c1 | > 100 µM (inactive)
22 | COc1ccc(CCNC(=O)CCCNS(=O)(=O)c2ccc3[nH]c(=O)oc3c2)cc1 | > 100 µM (inactive)
23 | Cc1ccccc1CNC(=O)C1CCCN(S(=O)(=O)c2ccc3[nH]c(=O)oc3c2)C1 (configuration not stated) | > 100 µM (inactive)

Row | SMILES | IC50
24 | O=C(CCNS(=O)(=O)c1ccc2[nH]c(=O)oc2c1)Nc1ccc2c(c1)OCO2 | > 100 µM (inactive)
25 | O=C(CCNS(=O)(=O)c1ccc2[nH]c(=O)oc2c1)NCc1ccc(O)c(O)c1 | 18.1 µM
26 | O=C(CCCNS(=O)(=O)c1ccc2[nH]c(=O)oc2c1)NCc1ccc2c(c1)OCO2 | > 100 µM (inactive)
27 | O=c1[nH]c2ccc(S(=O)(=O)Nc3ccc4c(c3)OCO4)cc2o1 | > 100 µM (inactive)
28 | O=C(CNS(=O)(=O)c1ccc2[nH]c(=O)oc2c1)NCCc1ccc2c(c1)OCO2 | > 100 µM (inactive)
29 | Cc1ccc(NC(=O)CCNS(=O)(=O)c2ccc3c(c2)oc(=O)n3C)c(C)c1 | > 100 µM (inactive)
30 | COc1cccc(CNC(=O)CNS(=O)(=O)c2ccc3[nH]c(=O)oc3c2)c1 | > 100 µM (inactive)
31 | COc1ccc(OC)c(NC(=O)CCNS(=O)(=O)c2ccc3c(c2)oc(=O)n3C)c1 | > 100 µM (inactive)
32 | COc1ccc(CNC(=O)CNS(=O)(=O)c2ccc3[nH]c(=O)oc3c2)cc1 | > 100 µM (inactive)
33 | COc1ccccc1CNC(=O)CCNS(=O)(=O)c1ccc2[nH]c(=O)oc2c1 | > 100 µM (inactive)
34 | Cc1ccc(C)c(NS(=O)(=O)c2ccc3[nH]c(=O)oc3c2)c1 | > 100 µM (inactive)
35 | CC(C)c1ccc(NC(=O)C2CCCN(S(=O)(=O)c3ccc4c(c3)oc(=O)n4C)C2)cc1 (configuration not stated) | > 100 µM (inactive)
36 | Cc1ccc(C)c(NC(=O)C2CCCN(S(=O)(=O)c3ccc4c(c3)oc(=O)n4C)C2)c1 (configuration not stated) | > 100 µM (inactive)
37 | COc1ccc(CNS(=O)(=O)c2ccc3[nH]c(=O)oc3c2)cc1 | > 100 µM (inactive)
38 | COc1ccc(NC(=O)CCCNS(=O)(=O)c2ccc3[nH]c(=O)oc3c2)cc1OC | > 100 µM (inactive)
39 | Cc1ccc(C)c(NC(=O)CCNS(=O)(=O)c2ccc3c(c2)CCC3)c1 | > 100 µM (inactive)
40 | COc1ccc(CCNC(=O)CCCNS(=O)(=O)c2ccc3[nH]c(=O)oc3c2)cc1OC | > 100 µM (inactive)
41 | COc1ccc(NC(=O)CCCNS(=O)(=O)c2ccc3[nH]c(=O)oc3c2)c(OC)c1 | > 100 µM (inactive)
42 | O=C(CCNS(=O)(=O)c1ccc2ccccc2c1)NCCc1ccc2c(c1)OCO2 | > 100 µM (inactive)
43 | O=C(CCNS(=O)(=O)c1ccc2[nH]c(=O)oc2c1)NCCc1ccc2c(c1)OCO2 | > 100 µM (inactive)
44 | Cc1ccccc1CNC(=O)CCCNS(=O)(=O)c1ccc2[nH]c(=O)oc2c1 | > 100 µM (inactive)
45 | N#Cc1cccc(CNC(=O)CCNS(=O)(=O)c2ccc3[nH]c(=O)oc3c2)c1 | > 100 µM (inactive)

More lines, now with the values ahead:

Row | IC50 | SMILES
46 | > 100 µM (inactive) | O=C(CCNS(=O)(=O)c1ccc2[nH]c(=O)oc2c1)NCc1ccc(F)cc1
47 | > 100 µM (inactive) | O=C(N/N=C/c1c(F)cccc1Cl)c1cc(O)c(O)c(O)c1
48 | > 100 µM (inactive) | O=C(CCNS(=O)(=O)c1ccc2[nH]c(=O)oc2c1)NCCc1ccc(O)cc1
49 | > 100 µM (inactive) | CSc1cccc(NC(=O)C2CCCN(S(=O)(=O)c3ccc4c(c3)oc(=O)n4C)C2)c1 (configuration not stated)
50 | > 100 µM (inactive) | N#Cc1ccc(NC(=O)CNS(=O)(=O)c2ccc3[nH]c(=O)oc3c2)cc1
51 | > 100 µM (inactive) | O=C(CCNS(=O)(=O)c1ccc2[nH]c(=O)oc2c1)NCc1ccc(Cl)cc1
52 | > 100 µM (inactive) | O=C(CCS(=O)(=O)Nc1ccc2[nH]c(=O)oc2c1)NCc1cccc(Cl)c1
53 | > 100 µM (inactive) | Cc1ccc(NC(=O)CCNS(=O)(=O)c2ccc3c(c2)oc(=O)n3C)cc1
54 | > 100 µM (inactive) | N#Cc1ccc(NS(=O)(=O)c2ccc3[nH]c(=O)oc3c2)cc1
55 | > 100 µM (inactive) | N#Cc1cccc(NC(=O)CNS(=O)(=O)c2ccc3[nH]c(=O)oc3c2)c1
56 | > 100 µM (inactive) | COc1cccc(NC(=O)CCNS(=O)(=O)c2ccc3c(c2)oc(=O)n3C)c1
57 | > 100 µM (inactive) | O=C(N/N=C/c1ccccc1F)c1ccc(O)cc1O
58 | > 100 µM (inactive) | COc1ccc(C(=O)N/N=C/c2c(F)cccc2Cl)cc1OC
59 | > 100 µM (inactive) | O=C(CCCNS(=O)(=O)c1ccc2[nH]c(=O)oc2c1)NCc1cccc(F)c1
60 | > 100 µM (inactive) | COc1cc(C(=O)N/N=C/c2c(F)cccc2Cl)cc(OC)c1OC
61 | > 100 µM (inactive) | O=C(N/N=C/c1c(F)cccc1F)c1ccc(O)cc1
62 | > 100 µM (inactive) | COc1cccc(C(=O)N/N=C/c2ccccc2F)c1
63 | > 100 µM (inactive) | Cc1ccc(C)c(NC(=O)CCNS(=O)(=O)c2ccc3ccccc3c2)c1
64 | > 100 µM (inactive) | COc1ccc(/C=N/NC(=O)c2cc(O)c(O)c(O)c2)cc1OC
65 | > 100 µM (inactive) | COc1ccc(C(=O)N/N=C/c2ccccc2F)cc1
66 | > 100 µM (inactive) | CC(C)(C)c1ccc(/C=N/NC(=O)c2cc(O)c(O)c(O)c2)cc1
67 | > 100 µM (inactive) | CC(=NNC(=O)c1ccccc1OCCOc1ccccc1)c1ccccc1F
68 | > 100 µM (inactive) | O=C(CCS(=O)(=O)Nc1ccc2[nH]c(=O)oc2c1)NCc1cccc(F)c1
69 | > 100 µM (inactive) | O=C(N/N=C/c1ccccc1Cl)c1cc(O)c(O)c(O)c1

Row | IC50 | SMILES
70 | > 100 µM (inactive) | O=C(NN=Cc1ccccc1F)c1ccc(O)cc1
71 | > 100 µM (inactive) | O=C(N/N=C/c1c(F)cccc1Cl)c1ccc(O)cc1
72 | > 100 µM (inactive) | O=C(CCNS(=O)(=O)c1ccc2[nH]c(=O)oc2c1)NCc1cccc(C(F)(F)F)c1
73 | > 100 µM (inactive) | CSc1cccc(NC(=O)CCNS(=O)(=O)c2ccc3c(c2)oc(=O)n3C)c1
74 | > 100 µM (inactive) | O=C(N/N=C/c1ccc(Cl)c(Cl)c1)c1cc(O)c(O)c(O)c1
75 | > 100 µM (inactive) | CCc1ccc(NC(=O)CCNS(=O)(=O)c2ccc3c(c2)oc(=O)n3C)cc1
76 | 64.3 µM | O=C(N/N=C/c1cccc(Cl)c1Cl)c1cc(O)c(O)c(O)c1
77 | > 100 µM (inactive) | O=C(N/N=C/c1ccc(F)cc1F)c1ccc(O)cc1
78 | > 100 µM (inactive) | CCc1ccc(NC(=O)C2CCCN(S(=O)(=O)c3ccc4c(c3)oc(=O)n4C)C2)cc1 (configuration not stated)
79 | > 100 µM (inactive) | O=C(N/N=C/c1ccccc1F)c1ccccc1OCc1ccccc1
80 | > 100 µM (inactive) | O=C(CCS(=O)(=O)Nc1ccc2[nH]c(=O)oc2c1)NCc1ccccc1Cl
81 | > 100 µM (inactive) | O=C(CCNS(=O)(=O)c1ccc2[nH]c(=O)oc2c1)NCc1ccc(C(F)(F)F)cc1
82 | > 100 µM (inactive) | O=C(N/N=C/c1ccccc1C(F)(F)F)c1cc(O)c(O)c(O)c1
83 | > 100 µM (inactive) | COc1ccc(/C=N/NC(=O)c2cc(O)c(O)c(O)c2)c(OC)c1
84 | > 100 µM (inactive) | O=C(N/N=C/c1c(Cl)cccc1Cl)c1cc(O)c(O)c(O)c1
85 | > 100 µM (inactive) | O=C(N/N=C/c1cc(Br)ccc1F)c1ccc(O)cc1
86 | > 100 µM (inactive) | O=C(N/N=C/c1ccccc1F)c1ccc(O)cc1
87 | 10.9 µM | CC(C)c1ccc(/C=N/NC(=O)c2cc(O)c(O)c(O)c2)cc1
88 | > 100 µM (inactive) | O=C(CCNS(=O)(=O)c1ccc2[nH]c(=O)oc2c1)NCc1cccc(F)c1
89 | > 100 µM (inactive) | N#Cc1cccc(NS(=O)(=O)c2ccc3[nH]c(=O)oc3c2)c1
90 | > 100 µM (inactive) | CCOc1cc(C(=O)N/N=C/c2c(F)cccc2Cl)cc(OCC)c1OCC
91 | > 100 µM (inactive) | CCOc1cc(C(=O)N/N=C/c2ccccc2F)cc(OCC)c1OCC
92 | > 100 µM (inactive) | COc1ccc(NC(=O)CCNS(=O)(=O)c2ccc3ccccc3c2)cc1OC
